In publication PMC10648541, “Design, Synthesis, and Antiproliferative Activity of Selective Histone Deacetylases 6 Inhibitors Containing a Tetrahydropyridopyrimidine Scaffold” (Molecules, 2023):

Assays:
HDAC1 = molecular target: T1, HDAC1 (Homo sapiens, UniProt Q13547); assay: In vitro HDAC enzyme assay (Reaction Biology Corporation), HDAC1; assay type: biochemical; conditions: Table 1; duplicate, SD < 15%
T1 construct: purchased Reaction Biology Corporation

HDAC6 = molecular target: T2, HDAC6 (Homo sapiens, UniProt Q9UBN7); assay: In vitro HDAC enzyme assay (Reaction Biology Corporation), HDAC6; assay type: biochemical
T2 construct: purchased Reaction Biology Corporation
T2 sequence (Q9UBN7 1-1215): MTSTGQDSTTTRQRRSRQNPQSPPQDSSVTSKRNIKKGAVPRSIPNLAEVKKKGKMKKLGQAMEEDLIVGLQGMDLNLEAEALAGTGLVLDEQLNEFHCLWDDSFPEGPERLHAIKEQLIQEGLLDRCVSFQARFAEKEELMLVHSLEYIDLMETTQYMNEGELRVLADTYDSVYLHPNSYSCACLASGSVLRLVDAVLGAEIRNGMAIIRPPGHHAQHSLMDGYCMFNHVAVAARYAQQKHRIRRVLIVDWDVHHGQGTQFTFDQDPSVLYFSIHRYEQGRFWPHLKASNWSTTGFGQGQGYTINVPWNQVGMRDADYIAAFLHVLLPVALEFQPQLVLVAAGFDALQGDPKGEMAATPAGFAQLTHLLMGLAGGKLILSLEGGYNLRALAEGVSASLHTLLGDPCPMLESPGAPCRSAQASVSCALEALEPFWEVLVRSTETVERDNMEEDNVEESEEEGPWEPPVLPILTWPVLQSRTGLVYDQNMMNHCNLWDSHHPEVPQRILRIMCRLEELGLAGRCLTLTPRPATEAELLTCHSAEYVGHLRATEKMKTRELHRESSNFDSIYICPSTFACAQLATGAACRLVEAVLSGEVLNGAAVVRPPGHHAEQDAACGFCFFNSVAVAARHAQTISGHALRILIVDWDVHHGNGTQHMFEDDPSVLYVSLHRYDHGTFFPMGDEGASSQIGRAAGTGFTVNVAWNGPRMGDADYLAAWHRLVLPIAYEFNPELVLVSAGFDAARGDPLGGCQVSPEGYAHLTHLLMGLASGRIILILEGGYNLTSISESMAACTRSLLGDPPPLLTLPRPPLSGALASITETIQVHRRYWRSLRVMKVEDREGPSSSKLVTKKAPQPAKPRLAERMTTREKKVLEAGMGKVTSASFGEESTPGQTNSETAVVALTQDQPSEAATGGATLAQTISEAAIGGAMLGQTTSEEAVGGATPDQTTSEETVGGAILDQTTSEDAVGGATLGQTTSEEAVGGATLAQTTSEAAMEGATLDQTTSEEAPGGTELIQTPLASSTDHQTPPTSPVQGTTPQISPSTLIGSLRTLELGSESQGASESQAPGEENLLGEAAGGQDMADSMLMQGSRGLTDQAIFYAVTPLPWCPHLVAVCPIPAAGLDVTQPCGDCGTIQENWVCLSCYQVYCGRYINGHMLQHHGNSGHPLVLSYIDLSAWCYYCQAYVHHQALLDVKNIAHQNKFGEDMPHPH

HDAC2 = molecular target: T3, HDAC2 (Homo sapiens, UniProt Q92769); assay: In vitro HDAC enzyme assay (Reaction Biology Corporation), HDAC2; assay type: biochemical; conditions: Table 2 isozyme screen; duplicate, SD < 15%
T3 construct: purchased Reaction Biology Corporation
T3 sequence (Q92769 whole entry): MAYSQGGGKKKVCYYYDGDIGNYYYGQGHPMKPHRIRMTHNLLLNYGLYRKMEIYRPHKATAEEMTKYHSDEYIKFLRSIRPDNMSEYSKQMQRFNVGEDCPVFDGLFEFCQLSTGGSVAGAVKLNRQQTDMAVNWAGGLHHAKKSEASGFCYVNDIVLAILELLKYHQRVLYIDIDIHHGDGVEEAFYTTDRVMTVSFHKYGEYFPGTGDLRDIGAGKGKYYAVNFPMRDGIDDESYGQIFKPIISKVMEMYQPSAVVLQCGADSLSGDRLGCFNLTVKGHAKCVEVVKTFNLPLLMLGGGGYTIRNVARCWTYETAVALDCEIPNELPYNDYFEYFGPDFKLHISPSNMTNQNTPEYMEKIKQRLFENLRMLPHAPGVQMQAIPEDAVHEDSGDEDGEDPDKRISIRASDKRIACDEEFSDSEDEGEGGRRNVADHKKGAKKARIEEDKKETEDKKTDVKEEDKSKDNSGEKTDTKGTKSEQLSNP

HDAC8 = molecular target: T4, HDAC8 (Homo sapiens, UniProt Q9BY41); assay: In vitro HDAC enzyme assay (Reaction Biology Corporation), HDAC8; assay type: biochemical; conditions: Table 2 isozyme screen; duplicate, SD < 15%
T4 construct: purchased Reaction Biology Corporation
T4 sequence (Q9BY41 whole entry): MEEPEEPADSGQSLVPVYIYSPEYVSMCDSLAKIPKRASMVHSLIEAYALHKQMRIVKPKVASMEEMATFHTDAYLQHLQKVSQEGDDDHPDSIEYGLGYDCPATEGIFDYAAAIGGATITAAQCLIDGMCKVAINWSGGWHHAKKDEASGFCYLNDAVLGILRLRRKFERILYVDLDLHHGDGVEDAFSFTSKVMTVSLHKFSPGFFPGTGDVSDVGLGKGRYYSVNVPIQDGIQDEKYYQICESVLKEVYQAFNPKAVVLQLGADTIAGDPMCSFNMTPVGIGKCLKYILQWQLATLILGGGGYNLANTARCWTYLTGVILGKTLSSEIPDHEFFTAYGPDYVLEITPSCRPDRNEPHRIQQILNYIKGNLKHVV

[1] = test system: 59 different tumor cell lines; assay: NCI-60 antiproliferative evaluation, whole panel; assay type: cell-based; conditions: 10 μM, of 59 tumor cell lines
From the text: (§1) Then, 8f was submitted to NCI for antiproliferative evaluation against 59 different tumor cell lines. The cancer types of the NCI-60 program include leukemia, non-small cell lung cancer (NSCLC), colon cancer, CNS cancer, melanoma, ovary cancer, renal cancer, prostate cancer, and breast cancer.

CCRF-CEM = assay: NCI-60 antiproliferative screening, CCRF-CEM; assay type: cell-based; conditions: Homo sapiens, CCRF-CEM (Leukemia), read-out: Inhibition% values at 10 μM concentration
From the text: as §1

K-562 = assay: NCI-60 antiproliferative screening, K-562; assay type: cell-based; conditions: Homo sapiens, K562, K-562 (Leukemia), read-out: Inhibition% values at 10 μM concentration
From the text: as §1

NCI-H322M = assay: NCI-60 antiproliferative screening, NCI-H322M; assay type: cell-based; conditions: Homo sapiens, NCI-H322M (Non-Small Cell Lung Cancer), read-out: Inhibition% values at 10 μM concentration
From the text: as §1

NCI-H460 = assay: NCI-60 antiproliferative screening, NCI-H460; assay type: cell-based; conditions: Homo sapiens, NCI-H460 (Non-Small Cell Lung Cancer), read-out: Inhibition% values at 10 μM concentration
From the text: as §1

HT29 = assay: NCI-60 antiproliferative screening, HT29; assay type: cell-based; conditions: Homo sapiens, HT-29, HT29 (Colon Cancer), read-out: Inhibition% values at 10 μM concentration
From the text: as §1

SF-268 = assay: NCI-60 antiproliferative screening, SF-268; assay type: cell-based; conditions: Homo sapiens, SF-268 (CNS Cancer), read-out: Inhibition% values at 10 μM concentration
From the text: as §1

SNB-75 = assay: NCI-60 antiproliferative screening, SNB-75; assay type: cell-based; conditions: Homo sapiens, SNB-75 (CNS Cancer), read-out: Inhibition% values at 10 μM concentration
From the text: as §1

MDA-MB-435 = assay: NCI-60 antiproliferative screening, MDA-MB-435; assay type: cell-based; conditions: Homo sapiens, MDA-MB-435 (Melanoma), read-out: Inhibition% values at 10 μM concentration
From the text: as §1

SK-MEL-5 = assay: NCI-60 antiproliferative screening, SK-MEL-5; assay type: cell-based; conditions: Homo sapiens, SK-MEL-5 (Melanoma), read-out: Inhibition% values at 10 μM concentration
From the text: as §1

OVCAR-3 = assay: NCI-60 antiproliferative screening, OVCAR-3; assay type: cell-based; conditions: Homo sapiens, OVCAR-3 (Ovarian Cancer), read-out: Inhibition% values at 10 μM concentration
From the text: as §1

NCI/ADR-RES = assay: NCI-60 antiproliferative screening, NCI/ADR-RES; assay type: cell-based; conditions: Homo sapiens, NCI/ADR-RES (Ovarian Cancer), read-out: Inhibition% values at 10 μM concentration
From the text: as §1

A498 = assay: NCI-60 antiproliferative screening, A498; assay type: cell-based; conditions: Homo sapiens, A498 (Renal Cancer), read-out: Inhibition% values at 10 μM concentration
From the text: as §1

TK-10 = assay: NCI-60 antiproliferative screening, TK-10; assay type: cell-based; conditions: Homo sapiens, TK-10 (Renal Cancer), read-out: Inhibition% values at 10 μM concentration
From the text: as §1

MCF7 = assay: NCI-60 antiproliferative screening, MCF7; assay type: cell-based; conditions: Homo sapiens, MCF7 (Breast Cancer), read-out: Inhibition% values at 10 μM concentration
From the text: as §1

T1 sequence (Q13547 whole entry): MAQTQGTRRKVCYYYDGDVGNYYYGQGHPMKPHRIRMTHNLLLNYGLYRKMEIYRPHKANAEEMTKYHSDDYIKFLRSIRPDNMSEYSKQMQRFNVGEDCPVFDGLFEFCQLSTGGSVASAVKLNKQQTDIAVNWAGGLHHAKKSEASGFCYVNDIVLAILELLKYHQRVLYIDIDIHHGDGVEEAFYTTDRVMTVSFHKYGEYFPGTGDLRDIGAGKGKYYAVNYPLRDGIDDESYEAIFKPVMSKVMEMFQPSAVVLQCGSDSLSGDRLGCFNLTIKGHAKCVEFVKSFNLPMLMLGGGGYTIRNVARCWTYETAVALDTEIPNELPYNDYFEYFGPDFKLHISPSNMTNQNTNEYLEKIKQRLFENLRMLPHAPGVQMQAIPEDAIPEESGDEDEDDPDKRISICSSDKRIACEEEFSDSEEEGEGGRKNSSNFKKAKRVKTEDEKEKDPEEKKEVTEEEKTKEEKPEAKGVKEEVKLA

IC50 (HDAC1): 308 nM
selectivity over other subtypes (HDAC6; HDAC6 over other HDAC subtypes): > 48 fold
Selectivity Index (HDAC6; Table 1, HDAC6 against HDAC1): 48
IC50 (HDAC6; Table 1, duplicate, SD < 15%): 6.4 nM
IC50 (HDAC2): 390 nM
HDAC8 IC50 (HDAC8): poor activity
IC50 (HDAC8): 510 nM
Compound: COc1cccc(-c2nc3c(c(-c4cccc(OC)c4)n2)CCN(C(=O)CCCCCCC(=O)NO)C3)c1 [Compound 8f, 8-(2,4-Bis(3-methoxyphenyl)-5,8-dihydropyrido [3,4-d]pyrimidin-7(6H)-yl)-N-hydroxy-8-oxooctanamide]
number of cell lines with percent inhibitions > 80% [1]: 56 cell lines
inhibition at 10 µM (CCRF-CEM): 85%
inhibition at 10 µM (K-562): 90.2%
inhibition at 10 µM (NCI-H322M): 89%
inhibition at 10 µM (NCI-H460): 95.5%
inhibition at 10 µM (HT29): 95.3%
inhibition at 10 µM (SF-268): 92.2%
inhibition at 10 µM (SNB-75): 71%
inhibition at 10 µM (MDA-MB-435): 95.8%
inhibition at 10 µM (SK-MEL-5): 100%
inhibition at 10 µM (OVCAR-3): 100%
inhibition at 10 µM (NCI/ADR-RES): 100%
inhibition at 10 µM (A498): 100%
inhibition at 10 µM (TK-10): 100%
inhibition at 10 µM (MCF7): 92.1%
